Assay results from patent publication US20260027220A1, “EPHA2 BCL-XL INHIBITOR ANTIBODY-DRUG CONJUGATES AND METHODS OF USE THEREOF” (Novartis AG, priority 2022, published 2026).

What was measured:
Panc03.27 xenografts = test: Panc03.27 xenograft efficacy, combination with gemcitabine (Table 15, FIG. 3); format: in vivo, mice; details: Gemcitabine 100 mg/kg IP q3dx3 alone
Protocol: (§1) EBC-1 cells were cultured at 37° C. (atmosphere of 5% CO2) in DMEM medium (Gibco 11965-084) supplemented with 10% FBS (HI-FBS #134K19, Tet-free). Panc03.27 cells were cultured at 37° C. (atmosphere of 5% CO2) in RPMI-1640 medium (Gibco 11875-085) supplemented with 15% FBS and 10 units/mL recombinant human insulin. Treatment with 0.25% Trypsin (Gibco 25200-056) was used for sub-culturing. To establish EBC-1 and Panc03.27 xenografts, cells were harvested and re-suspended in a 1:1 v/v mixture of phosphate buffered saline and Matrigel. A total of 5×10^6 EBC-1 cells and 10×10^6 Panc03.27 cells were injected subcutaneously in the flanks of female nude mice (Charles River, USA) in a volume of 200 μL. Tumor growth was monitored regularly post cell inoculation, and animals were randomized into treatment groups (n=8) with a mean tumor volume of about 200 mm^3.
(§2) For EBC-1 efficacy studies, EphA2-DANAPA-L11C-P25 ADC, 3207-DANAPA-L11C-P25 isotype control ADC, and EphA2-DANAPA CysMab control antibody were all dosed in combination with paclitaxel (LC Laboratories, Woburn, MA, Cat #: P-9600), as indicated in FIG. 1 and FIG. 2. For Panc03.27 efficacy studies, EphA2-DANAPA-L11C-P25 ADC, 3207-DANAPA-L11C-P25 isotype control ADC, and EphA2-DANAPA CysMab control antibody were all dosed in combination with either gemcitabine (Hospira, NDC Code 0409-0185-01) or the MAPK inhibitors (MAPKi) LXH254 and CFF272, as indicated in FIG. 3 and FIG. 4 respectively. […]
(§3) Tumor volume data were analyzed for statistical significance relative to the EphA2-DANAPA-L11C-P25 ADC combination groups. […]
(§4) As a measure of efficacy, % T/C values were calculated according to the following formula: (Δtumor volume in experimental group/Δtumor volume in vehicle control group)*100. Tumor regression was calculated according to the following formula: (Δtumor volume in experimental group/tumor volume in experimental group at start)*100. Δtumor volumes represent mean tumor volumes on the measurement day minus the mean tumor volume at the start of treatment. […]

dv90 = test: CellTiter-Glo proliferation assay, dv90; format: cell-based; details: single agent, 5 days of treatment
Protocol: (§5) EphA2-L11A-P21 antibody drug conjugate (ADC) alone or in combination with Trametinib were tested against cancer cell lines obtained from ATCC (American Type Culture Collection) or from other commercial cell line vendors. EphA2-L11A-P21 ADC was prepared according to any of the conjugation methods described herein. The cells were cultured in media that is optimal for their growth at 5% CO2, 37° C. in a tissue culture incubator. Prior to seeding for the proliferation assay, the cells were split at least 2 days before the assay to ensure optimal growth density. On the day of seeding, cells were lifted off tissue culture flasks using 0.25% trypsin. Cell viability and cell density were determined using a cell counter (Vi-Cell XR Cell Viability Analyzer, Beckman Coulter). […]
(§6) The ADCs were prepared in standard phosphate buffered solution to desired concentrations. […] The ability of the ADCs to inhibit cell proliferation and survival was assessed using the Promega CellTiter-Glo® proliferation assay. Plates were incubated at room temperature for 20 minutes to stabilize luminescent signals prior to reading using a multimode plate reader (Pherastar, BMG). Luminescent counts of untreated cells were taken the day after seeding (Day 0 readings), and after 5 days of treatment (Day 5 readings). The Day 5 readings of the untreated cells were compared to the Day 0 readings. […]

ebc1 = test: CellTiter-Glo proliferation assay, ebc1; format: cell-based; details: single agent, 5 days of treatment
Protocol: as §5, §6

jhom2b = test: CellTiter-Glo proliferation assay, jhom2b; format: cell-based; details: single agent, 5 days of treatment
Protocol: as §5, §6

skhep1 = test: CellTiter-Glo proliferation assay, skhep1; format: cell-based; details: single agent, 5 days of treatment
Protocol: as §5, §6

capan2 = test: CellTiter-Glo proliferation assay, capan2; format: cell-based; details: single agent, 5 days of treatment
Protocol: as §5, §6

sw403 = test: CellTiter-Glo proliferation assay, sw403; format: cell-based; details: single agent, 5 days of treatment
Protocol: as §5, §6

ncin87 = test: CellTiter-Glo proliferation assay, ncin87; format: cell-based; details: single agent, 5 days of treatment
Protocol: as §5, §6

panc0327 = test: CellTiter-Glo proliferation assay, panc0327; format: cell-based; details: single agent, 5 days of treatment
Protocol: as §5, §6

hcc1143 = test: CellTiter-Glo proliferation assay, hcc1143; format: cell-based; details: single agent, 5 days of treatment
Protocol: as §5, §6

skmel31 = test: CellTiter-Glo proliferation assay, skmel31; format: cell-based; details: single agent, 5 days of treatment
Protocol: as §5, §6

ocum1 = test: CellTiter-Glo proliferation assay, ocum1; format: cell-based; details: single agent, 5 days of treatment
Protocol: as §5, §6

aspc1 = test: CellTiter-Glo proliferation assay, aspc1; format: cell-based; details: single agent, 5 days of treatment
Protocol: as §5, §6

EBC-1 xenografts [1] = test: EBC-1 xenograft efficacy, ADC dose reduction alone or with paclitaxel (Table 14, FIG. 2); format: in vivo, mice; details: Paclitaxel 12.5 mg/kg SD IV alone
Protocol: as §1, §2, §3, §4

EBC-1 xenografts [2] = test: EBC-1 xenograft efficacy, combination with paclitaxel (Table 13, FIG. 1); format: in vivo, mice; details: Paclitaxel 12.5 mg/kg SD IV alone; Day 12
Protocol: as §1, §2, §3, §4

cyno EphA2 ectodomain [3] = target: T1, cyno EphA2 ectodomain (cyno, UniProt Q1KL86 25-537); test: SPR (Biacore 8k), Fab-capture, 37C, 1:1 model; *low binding signal
T1 construct: extracellular domain
Protocol: (§7) A human Fab capture method was utilized in order to determine kinetics for the antibodies. […] Each channel has two flow cells. The reference flow cell contained only immobilized anti-Fab, whereas the reaction flow cell captured anti-EphA2 IgG through anti-Fab. HBS-EP+ Buffer, pH 7.6 was used as the running buffer. The soluble human, mouse and cyno EphA2 ectodomain flowed over both flow cells on 8 channels. The EphA2 ectodomain concentration started at 50 nM and was serially diluted at one part to one part (1:1) in the running buffer for six concentrations. The analysis chamber was kept at 37° C. Regeneration was performed at the end of each sample washing with the solution of 10 mM Glycine-HCl, pH 2.1 provided in the kit.
(§8) The data were analysed using the Biacore Insight Evaluation Software. Double reference subtraction was completed to generate the final data. The raw data was fitted to a 1:1 binding model, with parameter(s) Rₘₐₓ set to local.

cyno EphA2 ectodomain [4] = target: T1, cyno EphA2 ectodomain; test: SPR (Biacore 8k), Fab-capture, 37C, 1:1 model;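 further: Anti-EphA2 IgG captured via immobilized anti-Fab, soluble EphA2 ectodomain as analyte at six twofold dilutions from 50 nM, HBS-EP+ pH 7.6 running buffer, double reference subtraction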
Protocol: as §7, §8

T1 sequence (Q1KL86 25-537): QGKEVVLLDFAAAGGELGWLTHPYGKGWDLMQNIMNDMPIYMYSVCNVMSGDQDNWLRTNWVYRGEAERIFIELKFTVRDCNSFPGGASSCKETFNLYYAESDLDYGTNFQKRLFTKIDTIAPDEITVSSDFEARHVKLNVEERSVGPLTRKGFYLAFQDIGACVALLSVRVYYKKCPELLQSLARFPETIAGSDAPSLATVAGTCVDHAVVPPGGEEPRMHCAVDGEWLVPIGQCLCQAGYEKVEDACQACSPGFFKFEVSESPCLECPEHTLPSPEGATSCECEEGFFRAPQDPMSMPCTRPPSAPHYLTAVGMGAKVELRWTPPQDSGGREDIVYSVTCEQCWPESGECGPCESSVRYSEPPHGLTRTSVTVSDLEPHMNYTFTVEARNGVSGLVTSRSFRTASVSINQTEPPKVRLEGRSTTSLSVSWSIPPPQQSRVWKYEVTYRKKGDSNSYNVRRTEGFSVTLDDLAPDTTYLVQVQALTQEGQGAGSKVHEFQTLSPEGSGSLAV

Molecule: Nc1ccn([C@@H]2O[C@H](CO)[C@@H](O)C2(F)F)c(=O)n1 [Gemcitabine]
- % T/C (Panc03.27 xenografts; Day 11): 31%
- ΔTumor volume (mm^3 ± SEM) (Panc03.27 xenografts; Day 11): 153 ± 39 mm^3
- Complete Responders (Panc03.27 xenografts; Day 34): 0/8

Molecule: Cc1c(Nc2nc3ccccc3s2)nnc2c1CCCN2c1ccc(-c2cnn(C[C@]34C[C@]5(C)C[C@](C)(C3)C[C@@](OCCN3CCCC3)(C5)C4)c2C)c(C(=O)O)n1 [P21, 6-[3-(1,3-benzothiazol-2-ylamino)-4-methyl-6,7-dihydro-5H-pyrido[2,3-c]pyridazin-8-yl]-3-[1-[[3,5-dimethyl-7-(2-pyrrolidin-1-ylethoxy)-1-adamantyl]methyl]-5-methyl-pyrazol-4-yl]pyridine-2-carboxylic acid]
- GI50 (dv90; Homo sapiens, DV-90, 120 h): 266 nM
- GI Amax (dv90): 16.76
- GI50 (ebc1; Homo sapiens, EBC-1, 120 h): 0.26 nM
- GI Amax (ebc1): −96.78
- GI50 (jhom2b; 120 h): 68.8 nM
- GI Amax (jhom2b): −27.63
- GI50 (skhep1; Homo sapiens, SK-HEP1, 120 h): 0.05 nM
- GI Amax (skhep1): −75.34
- GI50 (capan2; Homo sapiens, Capan-2, 120 h): 4.38 nM
- GI Amax (capan2): −81.72
- GI50 (sw403; Homo sapiens, SW-403, 120 h): 5.32 nM
- GI Amax (sw403): −64.33
- GI50 (ncin87; Homo sapiens, NCI-N87, 120 h): 0.77 nM
- GI Amax (ncin87): −29.31
- GI50 (panc0327; Homo sapiens, PANC-03-27, 120 h): 2.35 nM
- GI Amax (panc0327): −79.2
- GI50 (hcc1143; Homo sapiens, 120 h): 0.99 nM
- GI Amax (hcc1143): −43.38
- GI50 (skmel31; 120 h): 0.05 nM
- GI Amax (skmel31): −56.5
- GI50 (ocum1; 120 h): 0.49 nM
- GI Amax (ocum1): −94.77
- GI50 (aspc1; Homo sapiens, 120 h): 42.2 nM
- GI Amax (aspc1): 2.18

Molecule: CC(=O)O[C@H]1C(=O)[C@@]2(C)[C@H]([C@H](OC(=O)c3ccccc3)[C@]3(O)C[C@H](OC(=O)[C@H](O)[C@@H](NC(=O)c4ccccc4)c4ccccc4)C(C)=C1C3(C)C)[C@]1(OC(C)=O)CO[C@@H]1C[C@@H]2O [Paclitaxel, paclitaxel]
- % T/C (EBC-1 xenografts [1]; Day 14): 71%
- ΔTumor volume (mm^3 ± SEM) (EBC-1 xenografts [1]; Day 14): 649 ± 97 mm^3
- Complete Responders (EBC-1 xenografts [1]; Day 16): 0/8
- % T/C (EBC-1 xenografts [2]): 46%
- Complete Responders (EBC-1 xenografts [2]): 0/8
- ΔTumor volume (mm^3 ± SEM) (EBC-1 xenografts [2]): 687 ± 224 mm^3

B1: anti-EphA2 E152C S375C 1C1 (LC S10T) hIgG1 (WT Heavy Chain) (antibody, V domains shown)
VH: EVQLLESGGGLVQPGGSLRLSCAASGFTFSHYMMAWVRQAPGKGLEWVSRIGPSGGPTHYADSVKGRFTISRDNSKNTLYLQMNSLRAEDTAVYYCAGYDSGYDYVAVAGPAEYFQHWGQGTLVTVSS
VL: DIQMTQSPSTLSASVGDRVTITCRASQSISTWLAWYQQKPGKAPKLLIYKASNLHTGVPSRFSGSGSGTEFSLTISGLQPDDFATYYCQQYNSYSRTFGQGTKVEIKR
notes: also called BB-60-FO04
- Kd (cyno EphA2 ectodomain [3]): 196 nM

B2: LC Germ (1C1) (antibody, V domains shown)
VH: EVQLLESGGGLVQPGGSLRLSCAASGFTFSHYMMAWVRQAPGKGLEWVSRIGPSGGPTHYADSVKGRFTISRDNSKNTLYLQMNSLRAEDTAVYYCAGYDSGYDYVAVAGPAEYFQHWGQGTLVTVSS
VL: DIQMTQSPSSLSASVGDRVTITCRASQSISTWLAWYQQKPGKAPKLLIYKASNLHTGVPSRFSGSGSGTEFSLTISGLQPDDFATYYCQQYNSYSRTFGQGTKVEIK
notes: also called lots BA-71-QS06, HE-38-AZ34
- Kd (cyno EphA2 ectodomain [4]): 224 nM

B3: anti-EphA2 IgG antibody 1C1 (antibody, V domains shown)
VH: EVQLLESGGGLVQPGGSLRLSCAASGFTFSHYMMAWVRQAPGKGLEWVSRIGPSGGPTHYADSVKGRFTISRDNSKNTLYLQMNSLRAEDTAVYYCAGYDSGYDYVAVAGPAEYFQHWGQGTLVTVSS
VL: DIQMTQSPSSLSASVGDRVTITCRASQSISTWLAWYQQKPGKAPKLLIYKASNLHTGVPSRFSGSGSGTEFSLTISGLQPDDFATYYCQQYNSYSRTFGQGTKVEIK
notes: Tested as IgG; also called 1C1 WT IgG; iProt 120126
- Kd (cyno EphA2 ectodomain [4]): 265 nM

B4: 1C1 ADC (antibody, V domains shown)
VH: EVQLLESGGGLVQPGGSLRLSCAASGFTFSHYMMAWVRQAPGKGLEWVSRIGPSGGPTHYADSVKGRFTISRDNSKNTLYLQMNSLRAEDTAVYYCAGYDSGYDYVAVAGPAEYFQHWGQGTLVTVSS
VL: DIQMTQSPSSLSASVGDRVTITCRASQSISTWLAWYQQKPGKAPKLLIYKASNLHTGVPSRFSGSGSGTEFSLTISGLQPDDFATYYCQQYNSYSRTFGQGTKVEIK
modifications: antibody-drug conjugate; linker-payload and conjugation sites not stated for this sample
notes: Antibody-drug conjugate of 1C1; also called XD-01-KE85
- Kd (cyno EphA2 ectodomain [4]): 220 nM
